Tests used:
[1] = test system: δ-cat S259; assay: Phosphoproteomics in rat primary cortical neurons, δ-cat; type: cell-based; details: 1 μM KP; after 1 h, sustained at 24 h
Description: Cultured rat primary cortical neurons were treated with either vehicle DMSO (0.1%) or 1 μM KP for 1 h/24 h. Cells were lysed in non-detergent-containing buffer (Tris.Cl pH8 50 mM, NaCl 150 mM, 0.5% Phosphatase Inhibitor (Pierce #88667) and Protease Inhibitor (Roche #11836153001)). 500 μL was removed and solid urea was added to a final concentration of 8M. Samples were sonicated for further solubilization. After clearing of insoluble material by centrifugation, protein concentration was measured by Bradford assay. 250 μg of total protein was removed from each sample and solubilization buffer was added to normalize all samples to 0.93 μg/μL protein. Samples were then spiked with bovine alpha-casein to 30 fmol/μg of total protein. Samples were reduced with 10 mM DTT at 32° C. for 45 min and then alkylated with 20 mM iodoacetamide at room temperature for 30 min. […]
TiO2 Enrichment. […] After cleanup using a C18 STAGE tip, and resuspension in 2% acetonitrile, 0.1% TFA, 10 mM citric acid samples were quantified.
Quantitative analysis of Phosphopeptide Enriched Samples. Quantitative LC-MS/MS was performed in singlicate (4 uL=33% of the total sample each injection) for phosphopeptide-enriched samples using a nanoAcquity UPLC system (Waters Corp) coupled to a Thermo QExactive Plus high resolution accurate mass tandem mass spectrometer (Thermo) via a nanoelectrospray ionization source. […]

[2] = test system: KCC2 protein; assay: KCC2 immuno-staining morphometry of spinal cord dorsal horn; type: in vivo, mouse; details: KP 10 mg/kg; nerve constriction injury and CFA inflammatory pain models
Description: All mice were deeply anaesthetized with isoflurane and then transcardially perfused with ice-cold 4% paraformaldehyde in 0.1 M phosphate buffer, pH 7.4 (4% PFA). Dissected spinal cord samples were then post-fixed overnight in 4% PFA at 4° C., cryoprotected in a 20% sucrose solution in PBS at 4° C., frozen in Tissue-Tek OCT (Sakura), and stored at −80° C. until sectioning. Samples were sectioned at 20 μm using a cryostat (Microm HM 505N). The sections were blocked with 2% bovine serum albumin (BSA) in PBS with 0.3% Triton X-100 (Blocking solution) at room temperature for 1 h. The sections were treated with primary antibody in blocking solution at 4° C. overnight. The sections were washed three times followed by secondary antibody treatment at 4° C. for 2 hours. Anti-KCC2 antibody was validated as described above for immuno-cytochemistry. The goat anti-rabbit IgG Alexa Fluor 488 was obtained from Invitrogen (A-11008). […]
With the aforementioned findings and in view of the SCDH as the likely site of analgesic action of KP (Coull et al., 2003, Nature 424:938-942; Gagnon et al., 2013, Nat Med 19:1524-1528), SCDH KCC2 expression and function in nerve injury and response to KP was assessed. […] SCDH KCC2 protein expression was measured morphometrically after KCC2 immunolabeling using SCDH laminae I-II as the region-of-interest (FIG. 5B).

## O=C1Cc2c([nH]c3ccc(Br)cc23)-c2ccccc2N1 [kenpaullone, 9-bromo-7,12-dihydro-indolo [3,2-d] [1]benzazepin-6(5H)-one]
[1]
  S259 phosphorylation of δ-cat: significant de-phosphorylation
[2]
  KCC2 protein expression in SCDH: increases KCC2 protein expression
